One data set concerns HUVEC. Kind of data set: Antiproliferative activity against HUVEC after 72 hrs by WST8 assay. The following applies: Homo sapiens. In kind it is functional, cell-based. (In general: Formazan colour is commonly taken as a measure of viable cells.)
A further data set relates to KB 3-1. Kind of data set: Selectivity index, ratio of IC50 for human KB3-1 cells to IC50 for HUVEC.
Data set [1] can be described thus: Antiproliferative activity against human KB3-1 cells after 72 hrs by WST8 assay. Format: cell-based. The settings on record: KB 3-1, 72 h.
Data set [2] in a line: Antiproliferative activity against mouse Neuro2a cells. In kind it is cell-based. The following applies: N2a.
The subject of the next data set is NHDF. Kind of data set: Antiproliferative activity against human NHDF cells. In kind it is cell-based.
Another data set concerns K562. Kind of data set: Antiproliferative activity against human K562 cells. Format: cell-based.
Data set [3] has as its system CCRF S-180. Kind of data set: Antitumor activity against mouse S180 cells xenografted in po dosed ddY mouse assessed as tumor growth inhibition. Format: functional, organism-based.
Data set [4] has as its system Mus musculus. Put plainly: Toxicity in S180 cells xenografted ddY mouse assessed as diarrhea up to 100 mg/kg, po administered QOD for 14 days. In kind it is organism-based, CCRF S-180. Further details: dose 100 mg/kg, route oral. The following applies: in vivo, 336 h.
The subject of data set [5] is CCRF S-180. Kind of data set: Antitumor activity against mouse S180 cells xenografted in ddY mouse assessed as tumor growth inhibition at >5 mg/kg, po administered QOD for 14 days relative to vehicle-treated control. Format: functional, organism-based.
The test system of data set [6] is Mus musculus. Kind of data set: Toxicity in S180 cells xenografted ddY mouse assessed as body weight loss up to 100 mg/kg, po administered QOD for 14 days relative to vehicle-treated control. Format: organism-based, CCRF S-180. Further details: dose 100 mg/kg, route oral. The following applies: in vivo, 336 h.
The subject of data set [7] is CCRF S-180. Kind of data set: Antitumor activity against mouse S180 cells xenografted in ddY mouse assessed as tumor growth inhibition at >25 mg/kg, po administered QOD for 14 days relative to vehicle-treated control. In kind it is functional.
In data set [8] the test system is Mus musculus. Put plainly: Antiangiogenic activity in ddY mouse assessed as inhibition of bFGF-induced capillary formation in matrigel plug measured as hemoglobin level at 5 to 25 mg/kg, po administered QOD for 10 days by Drabkin reagent-based assay. Format: functional, organism-based.

Molecules are shown by their SMILES. The source made the active and inactive calls. The calls are words filed in the database; no cut-off is given here. Some results are limits rather than exact numbers.

Four compounds from ChEMBL document CHEMBL2146452, “Creation of readily accessible and orally active analogue of cortistatin a” (ACS Med Chem Lett, 2012) can be followed below.

Usually IC50 stands for the concentration that inhibits the measured activity by half. As for `CN(C)c1ccc(/C=C2/CC[C@@]3(C)[C@@H](CC[C@@H]3c3ccc4ccncc4c3)C2)cc1`, the figures for the concentration for half-maximal inhibition (IC50) (in the data set with HUVEC; in data set [1]) were 15 µM and 20 µM, respectively. Further, the “Ratio IC50” value in the data set on KB 3-1 is on record as 1.5.
For `C[C@]12C=CC3=CC4=C(CCCC4=O)O[C@H]3[C@@H]1CC[C@@H]2c1ccc2ccncc2c1`, the concentration for half-maximal inhibition (IC50) came to 0.1 µM in the data set with HUVEC; 10.5 µM in data set [1]; 10.5 µM in data set [2]; 10.5 µM in the data set with NHDF; 6 µM in the data set on K562. In addition, the “Ratio IC50” value in the data set with KB 3-1 was greater than 100. Besides, the “growth inhibition (GI)” value in the data set with CCRF S-180 [3] was “Active”.
Regarding `CN(C)C1CC=C(/C=C2/CC[C@@]3(C)[C@@H](CC[C@@H]3c3ccc4ccncc4c3)C2)CC1` (some centres undefined), the 50% inhibitory concentration (IC50) in the data set with HUVEC was 2 µM; in data set [1], 18 µM. Also, in the data set with KB 3-1, the “Ratio IC50” value was found to be 9.
For the compound `C[C@]12CCC3=CC4=C(CCCC4=O)O[C@H]3[C@@H]1CC[C@@H]2c1ccc2ccncc2c1`, the Activity result in the data set on Mus musculus [4] and in the data set with Mus musculus [6] was “Non-toxic” in each case. The “growth inhibition (GI)” value in the data set with CCRF S-180 [5] is “Active”. Also, the “growth inhibition (GI)” value in the data set on CCRF S-180 [7] turned out to be 90%. For the same compound, the concentration for half-maximal inhibition (IC50) with HUVEC was 0.035 µM; in data set [1], 10.5 µM; in [2] it was 10.5 µM; in the data set on NHDF, 4 µM; with K562, 5 µM. Besides, in the data set with KB 3-1, the “Ratio IC50” value is given as greater than 100. Besides, the inhibition entry with Mus musculus [8] was “Active”.
